Patent US20230165980A1, “METHODS FOR RADIOLABELING PSMA BINDING LIGANDS AND THEIR KITS” (Novartis AG, priority 2020, published 2023)

Assay: API assay stability of the freeze dried kit (external calibration curve)
Assay type: physicochemical
Settings: final formulation kit
Procedure: Stability tests were performed on the freeze dried product containing the final formulation. […] Kits manufactured with the final formulation, indeed, were stored at different stability conditions (2-8° C.; 25° C. and 40° C.) and were tested at different time points for API-assay, Radiochemical Purity and Radiochemical Stability of the radiolabelled product. Radiochemical Purity and Stability were assessed only eluting IRE Generator which represented the most stressful condition in terms of Radioactive Concentration (Volumic Activity).

O=C(O)CCc1ccc(O)c(CN(CCN(CC(=O)O)Cc2cc(CCC(=O)NCCCCCC(=O)NCCCC[C@H](NC(=O)N[C@@H](CCC(=O)O)C(=O)O)C(=O)O)ccc2O)CC(=O)O)c1 [PSMA-11]
API quantitation, 1. injection (3 months at 2-8° C.): 28.87 µg | API quantitation, 2. injection (3 months at 2-8° C.): 29.21 µg | API quantitation, 3. injection (3 months at 2-8° C.): 28.44 µg | API quantitation, Average (3 months at 2-8° C.): 28.84 µg | API quantitation, 1. injection (3 months at 25° C.): 28.19 µg | API quantitation, 2. injection (3 months at 25° C.): 29.57 µg | API quantitation, 3. injection (3 months at 25° C.): 28.33 µg | API quantitation, Average (3 months at 25° C.): 28.70 µg | API quantitation, 1. injection (3 months at 40° C.): 28.17 µg | API quantitation, 2. injection (3 months at 40° C.): 28.05 µg | API quantitation, 3. injection (3 months at 40° C.): 28.06 µg | API quantitation, Average (3 months at 40° C.): 28.10 µg | API quantitation, 1. injection (6 months at 2-8° C.): 29.79 µg | API quantitation, 2. injection (6 months at 2-8° C.): 29.61 µg | API quantitation, 3. injection (6 months at 2-8° C.): 29.43 µg | API quantitation, Average (6 months at 2-8° C.): 29.61 µg | API quantitation, 1. injection (6 months at 25° C.): 29.35 µg | API quantitation, 2. injection (6 months at 25° C.): 29.31 µg | API quantitation, 3. injection (6 months at 25° C.): 29.06 µg | API quantitation, Average (6 months at 25° C.): 29.24 µg | API quantitation, 1. injection (6 months at 40° C.): 28.81 µg | API quantitation, 2. injection (6 months at 40° C.): 28.87 µg | API quantitation, 3. injection (6 months at 40° C.): 28.98 µg | API quantitation, Average (6 months at 40° C.): 28.89 µg | API quantitation, 1. injection (Release (Manufacturing date)): 28.31 µg | API quantitation, 2. injection (Release (Manufacturing date)): 28.76 µg | API quantitation, 3. injection (Release (Manufacturing date)): 27.40 µg | API quantitation, Average (Release (Manufacturing date)): 28.15 µg
